Patent US12410187B2, “Fused tricyclic compounds useful as anticancer agents” (ASTRAZENECA AB, priority 2019, dated 2025)
Read-outs that look alike come from different tables or passages of the source.

Assays:
[1] = molecular target: T1, KRasG12C (Homo sapiens, UniProt P01116, G12C); assay: KRasG12C functional assay (HTRF/FRET nucleotide exchange and Raf RBD binding); assay type: biochemical; settings: samples incubated for 4 hrs, FRET readout, single experiment or average of two or more
T1 construct: biotin (biotinylated); made in house
T1 sequence (P01116 1-188 isoform P01116-2 G12C): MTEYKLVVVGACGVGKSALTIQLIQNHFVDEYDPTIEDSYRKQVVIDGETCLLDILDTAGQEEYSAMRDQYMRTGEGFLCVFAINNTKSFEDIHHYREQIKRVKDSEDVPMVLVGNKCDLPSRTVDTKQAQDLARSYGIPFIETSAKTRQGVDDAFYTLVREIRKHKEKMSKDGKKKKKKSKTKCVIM
Procedure: All enzyme and substrate solutions were prepared in assay buffer containing 20 mM HEPES (pH 7.5), 5 mM MgCl2, 150 mM NaCl, and 0.01% Tween 20. […] In a separate mix 20 nM GST-Raf Ras binding domain (GST-Raf RBD, purified in house) and 4 μg/ml anti-GST XL665 antibody (Cisbio) was prepared in assay buffer containing 50 mM Potassium Fluoride and 0.05 mg/ml BSA and equilibrated for 4 hours before adding 0.6 μM Guanosine 5′-[γ-thio]triphosphate (GTPγS, Sigma) and 0.08 μM SOS (purified in house). 5 μl of the GST-RAF RBD mix was then dispensed into each well of the assay plate. […] This is detected simultaneously via the specific binding interaction between active GTPγS KRas^G12C with GST-Raf RBD which brings the europium and XL665 into close proximity enabling an increased FRET signal to be detected on a Pherastar (BMG) plate reader equipped with the HTRF filter module. […] IC50 values were calculated from normalised dose-response response FRET data curve fitted in Genedata screener (Basel, Switzerland).

[2] = molecular target: T1, KRasG12C; assay: KRasG12C mass spectrometry adducting assay; assay type: binding; settings: test compound final concentration 10 μM, 4 hours reaction with 4 μM GDP loaded biotinylated KRasG12C
Procedure: Enzyme solutions were prepared in assay buffer containing 20 mM HEPES (pH 7.5), 5 mM MgCl2, and 150 mM NaCl. […] The plate was sealed before reading on a Xevo G2 QTOF (Waters) and Acquity LC system (Waters). 10 μl of sample was injected onto a Xbridge BEH300; C4; 3.5 um; 2.1×50 mm column (Waters) running a 3 minute gradient. Blank samples were run in between each test sample.
Data was analysed in Mass Lynx software (Waters), the Total ion count (TIC) trace was used and the eluted protein peak data combined. Using the combined spectrum the data was deconvoluted using MaxEnt1 method. The peak area for apo-protein KRas^G12C (APO) and KRAS+relative cmpd mass (adduct) were measured, and a percentage adduct was calculated using the following calculation: Percent adduct=100*(area of adduct peak/(sum of APO+adduct peaks).
The data from this mass spectrometry adducing assay is presented in the column labelled KRasG12C M.S. Binding Mean adduct % in Table A below.

[3] = tested on: MDR1 (Pgp) and BCRP; assay: Blood brain barrier penetrant assessment: efflux ratio in MDCK_MDR1_BCRP cells; assay type: in vitro ADME; settings: human, MDCK cells doubly transfected with MDR1 (Pgp) and BCRP, ratio of 2 or less = potential for good BBB penetration, read-out: Hu MDCK-MDR1-BCRP (0.1 uM) Mean Efflux Ratio
Procedure: In order to evaluate blood brain barrier (BBB) penetrant properties the efflux properties of compounds according to the specification was measured in cells transfected with the major efflux pumps expressed in the endothelial cells of the BBB. The assessment of efflux properties was performed using Madin-Darby Canine Kidney (MDCK) cells doubly transfected with MDR1 (Pgp) and BCRP. The transfected cell line, MDCK_MDR1_BCRP, thus expresses the two main efflux pumps that actively serve to exclude transit of compounds across the BBB and the efflux ration from these cell can be measured as described in the literature (Durant et al, Sci. Adv. 2018; eeat:1719). A compound that has an efflux ratio of 2 or less as measured by this technique is identified as having the potential for good BBB penetrant properties (Colclough et al, Drug Disc. Today 2019; 24(5), 1067-73).

[4] = KRasG12C functional assay IC50, GDP loaded biotinylated KRasG12C
[5] = GDP loaded biotinylated KRasG12C, read-out: KRasG12C functional assay IC50

SMILES | IC50 [1, 4] [nM] | KRasG12C M.S. Binding Mean adduct % [2] [%] | efflux ratio at 0.1 uM [3] | IC50 [1, 5] [nM]
C=CC(=O)N1CCN2Cc3cc(F)c(-c4c(C)cccc4O)c(F)c3OC[C@H]2C1 (single isomer, unassigned) [Example 45] | 66 | 97 | 1.3 | –
C=CC(=O)N1CCN2C(=O)c3cc(F)c(-c4c(O)cccc4F)c(Cl)c3OC[C@H]2C1 (single isomer, unassigned) [Example 11] | – | – | 0.5 | 67
C=CC(=O)N1CCN2Cc3ccc(-c4c(C)ccc5[nH]ncc45)c(Cl)c3OC[C@H]2C1 (single isomer, unassigned) [Example 10] | 332 | 97 | – | –
C=CC(=O)N1CCN2Cc3cc(F)c(-c4c(O)cccc4Br)c(F)c3OC[C@H]2C1 (single isomer, unassigned) [Example 59] | – | – | 0.8 | 32
C#Cc1c(F)c2c(c(F)c1-c1c(O)cccc1Cl)OC[C@H]1CN(C(=O)C=C)CCN1C2 (single isomer, unassigned) [Example 95] | – | – | 0.9 | 19
C=CC(=O)N1CCN2C(=O)c3ccc(-c4c(C)ccc5[nH]ncc45)c(Cl)c3OC[C@H]2C1 (single isomer, unassigned) [Example 8] | 698 | 91 | – | –
C=CC(=O)N1CCN2Cc3ccc(-c4c(C)ccc5[nH]ncc45)c(Cl)c3OC[C@@H]2C1 (single isomer, unassigned) [Example 3] | 1410 | 80 | – | –
C=CC(=O)N1CCN2Cc3cc(F)c(-c4c(O)cccc4Cl)c(F)c3OC[C@H]2C1 (single isomer, unassigned) [Example 43] | 33 | 95 | 0.7 | –
C#Cc1c2c(cc(F)c1-c1c(C)cccc1O)CN1CCN(C(=O)C=C)C[C@@H]1CO2 (single isomer, unassigned) [Example 65] | – | – | 1.4 | 182
C=CC(=O)N1CCN2Cc3c(F)c(F)c(-c4c(O)cccc4Cl)c(Cl)c3OC[C@H]2C1 (single isomer, unassigned) [Example 92] | – | – | 0.7 | 53
C=CC(=O)N1CCN2Cc3cc(F)c(-c4c(O)cccc4Cl)c(Cl)c3OC[C@H]2C1 (single isomer, unassigned) [Example 35] | – | – | 1.8 | 42
C=CC(=O)N1CCN2Cc3cc(Cl)c(-c4c(O)cccc4Cl)c(F)c3OC[C@H]2C1 (single isomer, unassigned) [Example 84] | 25 | – | 0.6 | –

Now from value to compound:

IC50 [1, 4] [nM] | KRasG12C M.S. Binding Mean adduct % [2] [%] | efflux ratio at 0.1 uM [3] | IC50 [1, 5] [nM] | SMILES
74000 | 0 | 0.9 | – | C=CC(=O)N1CCN2Cc3ccc(-c4c(C)ccc5[nH]ncc45)c(Cl)c3OC[C@@H]2C1 (single isomer, unassigned) [Example 4]
– | – | 0.9 | 14 | C=CC(=O)N1CCN2Cc3cc(C#CC)c(-c4c(O)cccc4Cl)c(Cl)c3OC[C@H]2C1 (single isomer, unassigned) [Example 109]
– | – | 0.6 | 54 | C#Cc1cc2c(c(C)c1-c1c(O)cccc1Cl)OC[C@H]1CN(C(=O)C=C)CCN1C2 (single isomer, unassigned) [Example 90]
15 | – | 0.9 | – | C=CC(=O)N1CCN2Cc3cc(C#CC)c(-c4c(O)cccc4Cl)c(F)c3OC[C@H]2C1 (single isomer, unassigned) [Example 86]
2610 | 12 | – | – | C=CC(=O)N1CCN2Cc3cc(F)c(-c4c(O)cccc4Cl)c(F)c3OC[C@H]2C1 (single isomer, unassigned) [Example 42]
– | – | 0.3 | 27.7 | C=CC(=O)N1CCN2Cc3cc(Cl)c(-c4c(C)cccc4O)c(F)c3OC[C@H]2C1 (single isomer, unassigned) [Example 61]
– | – | 0.7 | 83 | C#Cc1cc2c(c(Cl)c1-c1c(O)cccc1F)OC[C@H]1CN(C(=O)C=C)CCN1C2 (single isomer, unassigned) [Example 80]
– | – | 1.5 | 44 | [2H]C([2H])([2H])Oc1nc2c(c(Cl)c1-c1c(O)cccc1Cl)OC[C@H]1CN(C(=O)C=C)CCN1C2 (single isomer, unassigned) [Example 112]
